21 molecules from PubChem BioAssay AID328 (DTP/NCI, 2004) can be followed below.

This assay deals with BDF1 mice, P388 leukemia ip, median survival T/C. Description: NCI In Vivo Anticancer Drug Screen. Data for tumor model P388 Leukemia (intraperitoneal) in B6D2F1 (BDF1) mice. As to conditions: endpoint: median survival time, higher = longer survival. The procedure, abridged:
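Transplantable tumour in mice; compound vs vehicle dosing; survival scored; ratio of treated to control reported.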

The mark [1] stands for this setting: dose: 100.0 mg/kg/injection, schedule: Q04DX003 (ip), vehicle: saline with Tween-80.
Where [2] appears, read: dose: 200.0 mg/kg/injection, schedule: Q04DX003 (ip), vehicle: saline with Tween-80.
Where [3] appears, read: dose: 400.0 mg/kg/injection, schedule: Q04DX003 (ip), vehicle: saline with Tween-80.
The mark [4] stands for this setting: dose: 100.0 mg/kg/injection, schedule: Q01DX009 (ip), vehicle: saline with Tween-80.
Where [5] appears, read: dose: 200.0 mg/kg/injection, schedule: Q01DX009 (ip), vehicle: saline with Tween-80.
Setting [6] is: dose: 25.0 mg/kg/injection, schedule: Q01DX009 (ip), vehicle: Klucel (hydroxypropylcellulose) (HPC).
Setting [7] is: dose: 50.0 mg/kg/injection, schedule: Q01DX009 (ip), vehicle: Klucel (hydroxypropylcellulose) (HPC).
The mark [8] stands for this setting: dose: 50.0 mg/kg/injection, schedule: Q04DX003 (ip), vehicle: Klucel (hydroxypropylcellulose) (HPC).
[9] abbreviates: dose: 100.0 mg/kg/injection, schedule: Q01DX009 (ip), vehicle: Klucel (hydroxypropylcellulose) (HPC).
[10] abbreviates: dose: 100.0 mg/kg/injection, schedule: Q04DX003 (ip), vehicle: Klucel (hydroxypropylcellulose) (HPC).
[11] abbreviates: dose: 50.0 mg/kg/injection, schedule: Q01DX009 (ip), vehicle: saline with Tween-80.
Where [12] appears, read: dose: 200.0 mg/kg/injection, schedule: Q04DX003 (ip), vehicle: saline.
The mark [13] stands for this setting: dose: 12.5 mg/kg/injection, schedule: Q01DX009 (ip), vehicle: Klucel (hydroxypropylcellulose) (HPC).
Where [14] appears, read: dose: 25.0 mg/kg/injection, schedule: Q04DX003 (ip), vehicle: Klucel (hydroxypropylcellulose) (HPC).
Setting [15] is: dose: 75.0 mg/kg/injection, schedule: Q04DX003 (ip), vehicle: saline with Tween-80.

Where “and” joins values, the source holds several entries; their conditions need not be identical. Equal values may be shown once. Toxic doses and inconclusive results are not listed. Residues, ends and D or L forms follow the SMILES beside them. *: point of attachment. Cbz = O=C(OCc1ccccc1)*

Consider `CC(C)C(NC(=O)C1CCCN1C(=O)OCc1ccccc1)C(=O)O` (stereo not drawn) (Cbz-Pro-Val-OH; configuration not given here), for which the T/C runs as follows: under setting [1], 104 % of control; under setting [2], 100 % of control; under setting [3], 100 % of control.

`CCC(C)C(O)C(C(=O)O)C1CCCCC1` (stereo not given): the T/C (dose: 50.0 mg/kg/injection, schedule: Q01DX005 (ip), vehicle: saline with Tween-80) was 100 % of control; the T/C (dose: 100.0 mg/kg/injection, schedule: Q01DX005 (ip), vehicle: saline with Tween-80) is 95 % of control; the T/C (dose: 200.0 mg/kg/injection, schedule: Q01DX005 (ip), vehicle: saline with Tween-80) was 86 % of control.

Regarding `CCc1ccc(NC(=O)c2ccccc2C(=O)O)cc1`, the T/C was 122 % of control under setting [1], 104 % of control under setting [2] and 109 % of control under setting [3].

As to `Cc1cc2c(C(C)C)c(O)c(O)c(C=O)c2c(O)c1-c1c(C)cc2c(C(C)C)c(O)c(O)c(C=O)c2c1O`, the T/C (dose: 1.25 mg/kg/injection, schedule: Q01DX009 (ip), vehicle: saline with Tween-80) is 124 % of control and the T/C (dose: 2.5 mg/kg/injection, schedule: Q01DX009 (ip), vehicle: saline with Tween-80) was 120 % of control.

Regarding `c1cc2cccc3c2c(c1)c1sc2c4cccc5cccc(c54)c2c31`, the T/C by setting is: under setting [1], 91 % of control; under setting [2], 100 % of control.

In the case of `COC(OC)c1[nH]c(=S)[nH]c(=O)c1Cc1cccc2ccccc12`, the T/C is, setting by setting: under setting [4], 111 % of control; under setting [1], 100 % of control; under setting [5], 92 % of control; under setting [2], 91 % of control; (dose: 400.0 mg/kg/injection, schedule: Q01DX009 (ip), vehicle: saline with Tween-80) 88 % of control; under setting [3], 87 % of control.

Regarding `Cc1cc(=O)[nH]c(N/N=C/C(C)C)n1`, the T/C under setting [6] is 92 % of control; the T/C under setting [7] was 92 % of control; the T/C under setting [8] is 96 % of control; the T/C under setting [9] was 100 % of control; the T/C under setting [10] was 88 % of control; the T/C (dose: 200.0 mg/kg/injection, schedule: Q04DX003 (ip), vehicle: Klucel (hydroxypropylcellulose) (HPC)) is 88 % of control.

On to `COC(=O)c1c2ccccc2cn1-c1ccccc1`, for which the T/C is, setting by setting: under setting [11], 100 % of control; under setting [4], 109 % of control; under setting [5], 100 % of control.

With `CSc1cccc(NC(=O)Oc2ccc([N+](=O)[O-])cc2Cl)c1`, the T/C is, setting by setting: (dose: 12.5 mg/kg/injection, schedule: Q01DX009 (ip), vehicle: DMSO) 93 % of control; (dose: 50.0 mg/kg/injection, schedule: Q01DX009 (ip), vehicle: DMSO) 89 % of control.

Turning to `CCCCN(C)N=Nc1ccc(CCCC(=O)OCC)cc1`, the T/C by setting is: (dose: 12.5 mg/kg/injection, schedule: Q01DX009 (ip), vehicle: saline with Tween-80) 91 % of control; (dose: 25.0 mg/kg/injection, schedule: Q01DX009 (ip), vehicle: saline with Tween-80) 100 % of control; under setting [11], 117 % of control; (dose: 132.0 mg/kg/injection, schedule: Q04DX003 (ip), vehicle: saline) 95 % of control; under setting [12], 156 % of control; (dose: 300.0 mg/kg/injection, schedule: Q04DX003 (ip), vehicle: saline) 121 % of control.

As for `CC(=O)[C@H]1CC[C@H]2[C@@H]3C[C@H](C)C4=CC(=O)CC[C@]4(C)[C@H]3C(=O)C[C@]12C`, the T/C reads like this: under setting [1], 103 % of control; under setting [2], 107 % of control; under setting [3], 103 % of control.

With `COc1ccc(Cc2nccc3c(OC)c(OC)ccc23)cc1OC`, the T/C (dose: 25.0 mg/kg/injection, schedule: Q01DX009 (ip), vehicle: saline) was 116 % of control; the T/C (dose: 50.0 mg/kg/injection, schedule: Q01DX009 (ip), vehicle: saline) is 106 % of control and 119 % of control; the T/C (dose: 50.0 mg/kg/injection, schedule: Q04DX003 (ip), vehicle: saline) is 103 % of control; the T/C (dose: 75.0 mg/kg/injection, schedule: Q01DX009 (ip), vehicle: saline) is 119 % of control; the T/C (dose: 100.0 mg/kg/injection, schedule: Q01DX009 (ip), vehicle: saline) is 119 % of control; the T/C (dose: 100.0 mg/kg/injection, schedule: Q04DX003 (ip), vehicle: saline) is 103 % of control. Further, the T/C runs as follows: (dose: 200.0 mg/kg/injection, schedule: Q01DX009 (ip), vehicle: saline) 87 % of control; under setting [12], 87 % of control.

For `COc1ccc2c3csc4ccccc4c-3nc2c1`, the T/C is 109 % of control under setting [13]; 109 % of control under setting [6]; 100 % of control and 122 % of control under setting [14]; 109 % of control under setting [8]; 112 % of control (dose: 75.0 mg/kg/injection, schedule: Q01DX001 (ip), vehicle: Klucel (hydroxypropylcellulose) (HPC)); 104 % of control and 105 % of control under setting [10]. Also, under “dose: 150.0 mg/kg/injection, schedule: Q01DX001 (ip), vehicle: Klucel (hydroxypropylcellulose) (HPC)”, the T/C is 100 % of control.

Turning to `C=C1C(=O)OC2C3OC(C)(CCC(O)C3COC(C)=O)CC(OC(=O)/C(=C/C)COC(C)=O)C12` (stereo not given), the T/C is, setting by setting: (dose: 3.13 mg/kg/injection, schedule: Q01DX009 (ip), vehicle: Klucel (hydroxypropylcellulose) (HPC)) 100 % of control; (dose: 6.25 mg/kg/injection, schedule: Q01DX009 (ip), vehicle: Klucel (hydroxypropylcellulose) (HPC)) 112 % of control; under setting [13], 102 % of control; under setting [6], 121 % of control.

For `C#CC(O)C(CC)CCCC` (stereo not given), the T/C reads like this: under setting [1], 100 % of control; under setting [2], 100 % of control; under setting [3], 100 % of control.

Consider `[Cu+2].[O-]c1ccc(Br)c2cccnc12.[O-]c1ccc(Br)c2cccnc12`, for which the T/C is, setting by setting: (dose: 12.5 mg/kg/injection, schedule: Q04DX003 (ip), vehicle: saline with Tween-80) 100 % of control; (dose: 25.0 mg/kg/injection, schedule: Q04DX003 (ip), vehicle: saline with Tween-80) 90 % of control; (dose: 50.0 mg/kg/injection, schedule: Q04DX003 (ip), vehicle: saline with Tween-80) 95 % of control; under setting [15], 90 % of control.

Turning to `CCC(/C=C\C(C)C1CCC2C3CC=C4CC(O)CCC4(C)C3CCC12C)C(C)C` (stereo not given), the T/C is 104 % of control (dose: 50.0 mg/kg/injection, schedule: Q01DX010 (ip), vehicle: saline); 108 % of control (dose: 100.0 mg/kg/injection, schedule: Q01DX010 (ip), vehicle: saline); 100 % of control (dose: 200.0 mg/kg/injection, schedule: Q01DX010 (ip), vehicle: saline); 91 % of control (dose: 400.0 mg/kg/injection, schedule: Q01DX010 (ip), vehicle: saline).

For the molecule `CCOC(=O)N(C)c1ccccc1`, the T/C is, setting by setting: under setting [6], 95 % of control; under setting [14], 92 % of control; under setting [7], 91 % of control; under setting [8], 96 % of control; under setting [9], 87 % of control; under setting [10], 92 % of control.

On to `CNC(=O)c1ccc(NC(=O)Nc2cccc(C3=NCCN3)c2)cc1NC(=O)Nc1cccc(C2=NCCN2)c1`, for which the T/C (dose: 30.0 mg/kg/injection, schedule: Q01DX009 (ip), vehicle: saline with Tween-80) was 162 % of control.

With `CN=NNc1ccccc1`, the T/C by setting is: (dose: 66.0 mg/kg/injection, schedule: Q04DX003 (ip), vehicle: saline with Tween-80) 120 % of control; (dose: 75.0 mg/kg/injection, schedule: Q01DX009 (ip), vehicle: other) 118 % of control; under setting [15], 120 % of control; (dose: 150.0 mg/kg/injection, schedule: Q04DX003 (ip), vehicle: saline with Tween-80) 100 % of control; (dose: 225.0 mg/kg/injection, schedule: Q04DX003 (ip), vehicle: saline with Tween-80) 95 % of control; (dose: 300.0 mg/kg/injection, schedule: Q04DX003 (ip), vehicle: saline with Tween-80) 100 % of control.

As to `Cc1ccccc1NC(=O)C1CCC(C)(C(=O)O)C1(C)C` (stereo not given), the T/C under setting [1] was 90 % of control, the T/C under setting [2] is 100 % of control and the T/C under setting [3] was 90 % of control.
